Laboratory results reported in US12528812B2 (Genentech, Inc., priority 2020, dated 2026).
Like-named read-outs stand apart in the source and are kept apart here.

Experiments:
[1] = molecular target: T1, recombinant human JAK1 kinase domain protein (Residues 854-1154) (Homo sapiens, UniProt P23458); assay: JAK1 biochemical assay (LabChip mobility shift, Ki); details: read-out: Biochem JAK1 Ki
T1 construct: human JAK1 kinase domain protein (Residues 854-1154); purchased Proteros Biostructures GmbH (Martinsried, Germany); host or cells: insect cells
T1 sequence (P23458 854-1154): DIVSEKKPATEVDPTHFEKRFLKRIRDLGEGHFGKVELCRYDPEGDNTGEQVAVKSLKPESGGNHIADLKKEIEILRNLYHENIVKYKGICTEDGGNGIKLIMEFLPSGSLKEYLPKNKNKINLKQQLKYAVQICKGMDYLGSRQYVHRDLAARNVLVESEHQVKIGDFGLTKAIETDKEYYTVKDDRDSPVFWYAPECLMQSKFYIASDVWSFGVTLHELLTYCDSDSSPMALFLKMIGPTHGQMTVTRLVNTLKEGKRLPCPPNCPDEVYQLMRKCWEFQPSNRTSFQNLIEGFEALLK

[2] = molecular target: Recombinant human JAK2 kinase domain protein (Residues 812-1132) (Homo sapiens, UniProt O60674); assay: JAK2 biochemical assay (LabChip mobility shift, Ki); details: Biochem JAK2 Ki
Recombinant human JAK2 kinase domain protein (Residues 812-1132), sequence (O60674 812-1132): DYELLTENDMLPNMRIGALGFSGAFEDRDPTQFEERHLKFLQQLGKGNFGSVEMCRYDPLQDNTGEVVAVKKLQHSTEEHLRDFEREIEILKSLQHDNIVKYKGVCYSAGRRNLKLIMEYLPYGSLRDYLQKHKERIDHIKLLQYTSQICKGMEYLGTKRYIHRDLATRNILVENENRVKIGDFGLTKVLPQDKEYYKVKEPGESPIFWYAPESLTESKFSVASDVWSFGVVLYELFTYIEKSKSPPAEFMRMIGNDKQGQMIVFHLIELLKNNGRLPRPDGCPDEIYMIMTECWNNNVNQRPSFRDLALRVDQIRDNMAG
Method: The in vitro biochemical assays quantify JAK-catalyzed phosphorylation of a synthetic peptide, as detected using a LabChip® EZ Reader II microfluidic mobility shift instrument (PerkinElmer; Waltham, MA). […] Y-1B is fluorescently labeled on the N-terminus with 5-FAM (5-carboxyfluorescein) and contains a single tyrosine residue (Y) that can be phosphorylated by JAK activity. The substrate peptide stock is prepared in DMSO at 5 mM. […] In each titration experiment, test compound was tested in duplicate at each of the twelve concentrations. Blank reactions contained ATP, peptide, and DMSO, but no JAK or test compound, whereas uninhibited control reactions contained ATP, peptide, JAK, and DMSO, but no test compound.
Peptide plus ATP mixture (24 μL) was added to 1 μL of test compound in DMSO (or DMSO alone). The reactions were initiated by adding 25 μL of JAK enzyme to the inhibitor/peptide/ATP mixture before thoroughly mixing the resultant solution. Reactions were incubated at room temperature (22° C.-23° C.) in a final volume of 50 μL per well in 384-well plates. After a 30-minute incubation, the reactions were stopped by adding 25 μL of 150 mM ethylenediaminetetraacetic acid in 100 mM HEPES buffer (pH 7.2) containing 0.015% Brij 35 to each well.
In each reaction, the residual Y-1B substrate and the phospho-peptide product generated were separated using the EZ Reader II instrument. Electrophoretic separation of molecules of product from molecules of substrate was achieved using downstream and upstream voltages of −500 and −2600 V, respectively, at an operating pressure of −1.3 psi.
The extent (or percent) of conversion of substrate to product was calculated from the corresponding peak heights in the electropherogram using HTS Well Analyzer software, Version 5.2 (PerkinElmer), and the following equation (Equation 1): conversion=[P÷(S+P)]×100 Equation 1% where S and P represent the peak heights of the substrate and product, respectively. After any baseline signal from blank wells containing no JAK was subtracted from the signal of all test wells, the % conversion data were converted to fractional activity as shown in Equation 2, where vi and vo are the % conversion in the presence and absence of test compound, respectively.

[3] = tested on: IL-13-stimulated STAT6 phosphorylation in human lung bronchial epithelial BEAS-2B cell line; assay: P-STAT6 BEAS-2B + IL-13 cell assay; type: cell-based; details: BEAS2B cells, IL13 stimulation, read-out: Cellular JAK1 PSTAT6 BEAS2B + IL13
Outline: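 Phospho-STAT6 (Tyr641) was quantified in lysates by MSD electrochemiluminescence after human IL-13 challenge (250 ng/mL stock, 15 min, 37 °C). Before that, BEAS-2B cells cultured 48 h had 1 h compound exposure over 10 concentrations. Percent of control was fitted to a four-parameter logistic model to give IC50.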

CCN1CCC(O)(Cn2cc(Oc3ccc(OC(F)F)c(-c4nn(C)cc4NC(=O)c4cnn5cccnc45)c3)cn2)CC1 [Example 212, N-[3-[2-(difluoromethoxy)-5-[1-[(1-ethyl-4-hydroxy-4-piperidyl)methyl]pyrazol-4-yl]oxy-phenyl]-1-methyl-pyrazol-4-yl]pyrazolo[1,5-a]pyrimidine-3-carboxamide]
Ki [1]: 840 pM | Ki [2]: 600 pM | IC50 ([3]; Homo sapiens, BEAS-2B): 120000 pM

Cn1cc(NC(=O)c2cnn3cccnc23)c(-c2cc(Oc3cccc(C4(F)CNC4)c3)ccc2OC(F)F)n1 [Example 70, N-[3-[2-(difluoromethoxy)-5-[3-(3-fluoroazetidin-3-yl)phenoxy]phenyl]-1-methyl-pyrazol-4-yl]pyrazolo[1,5-a]pyrimidine-3-carboxamide]
Ki [1]: 270 pM | Ki [2]: 260 pM | IC50 ([3]; Homo sapiens, BEAS-2B): 23000 pM

Cc1nn(C)cc1Oc1ccc(OC(F)F)c(-c2nn(C)cc2NC(=O)c2cnn3cccnc23)c1 [Example 153, N-[3-[2-(difluoromethoxy)-5-(1,3-dimethylpyrazol-4-yl)oxy-phenyl]-1-methyl-pyrazol-4-yl]pyrazolo[1,5-a]pyrimidine-3-carboxamide]
Ki [1]: 460 pM | Ki [2]: 230 pM | IC50 ([3]; Homo sapiens, BEAS-2B): 27000 pM

O=C(Nc1cn(C2COC2)nc1-c1cc(Oc2ccc3c(c2)CNCC3)ccc1OC(F)F)c1cnn2cccnc12 [Example 157, N-[3-[2-(difluoromethoxy)-5-(1,2,3,4-tetrahydroisoquinolin-7-yloxy)phenyl]-1-(oxetan-3-yl)pyrazol-4-yl]pyrazolo[1,5-a]pyrimidine-3-carboxamide]
Ki [1]: 310 pM | Ki [2]: 280 pM | IC50 ([3]; Homo sapiens, BEAS-2B): 28000 pM

Cc1ccc(Oc2ccc(OC(F)F)c(-c3n[nH]cc3NC(=O)c3cnn4cccnc34)c2)cc1C(=O)N(C)C [Example 10, N-[3-[2-(difluoromethoxy)-5-[3-(dimethylcarbamoyl)-4-methyl-phenoxy]phenyl]-1H-pyrazol-4-yl]pyrazolo[1,5-a]pyrimidine-3-carboxamide]
Ki [1]: 240 pM | Ki [2]: 180 pM | IC50 ([3]; Homo sapiens, BEAS-2B): 42000 pM

Cn1cc(NC(=O)c2cnn3cccnc23)c(-c2cc(Oc3cnn(C4CCC4O)c3)ccc2OC(F)F)n1 (stereo not drawn) [Example 135, N-[3-[2-(difluoromethoxy)-5-[1-(2-hydroxycyc1obutyl)pyrazol-4-yl]oxy-phenyl]-1-methyl-pyrazol-4-yl]pyrazolo[1,5-a]pyrimidine-3-carboxamide]
Ki [1]: 250 pM | Ki [2]: 160 pM | IC50 [3]: 15000 pM

CNCc1cccc(Oc2ccc(OC(F)F)c(-c3n[nH]cc3NC(=O)c3cnn4cccnc34)c2)c1 [Example 15, N-[3-[2-(difluoromethoxy)-5-[3-(methylaminomethyl)phenoxy]phenyl]-1H-pyrazol-4-yl]pyrazolo[1,5-a]pyrimidine-3-carboxamide]
Ki [1]: 320 pM | Ki [2]: 400 pM | IC50 ([3]; Homo sapiens, BEAS-2B): 24000 pM

Cc1c(Oc2ccc(OC(F)F)c(-c3nn(C)cc3NC(=O)c3cnn4cccnc34)c2)cnn1CCO [Example 155, N-[3-[2-(difluoromethoxy)-5-[1-(2-hydroxyethyl)-5-methyl-pyrazol-4-yl]oxy-phenyl]-1-methyl-pyrazol-4-yl]pyrazolo[1,5-a]pyrimidine-3-carboxamide]
Ki [1]: 310 pM | Ki [2]: 210 pM | IC50 ([3]; Homo sapiens, BEAS-2B): 25000 pM

CN1CC(N(C)C(=O)c2cccc(Oc3ccc(OC(F)F)c(-c4nn(C)cc4NC(=O)c4cnn5cccnc45)c3)c2)C1 [Example 205, N-[3-[2-(difluoromethoxy)-5-[3-[methyl-(1-methylazetidin-3-yl)carbamoyl]phenoxy]phenyl]-1-methyl-pyrazol-4-yl]pyrazolo[1,5-a]pyrimidine-3-carboxamide]
Ki [1]: 740 pM | Ki [2]: 790 pM | IC50 ([3]; Homo sapiens, BEAS-2B): 40000 pM

Cn1cc(NC(=O)c2cnn3cccnc23)c(-c2cc(Oc3cnn(CC(C)(C)O)c3)ccc2OC(F)F)n1 [Example 124, N-[3-[2-(difluoromethoxy)-5-[1-(2-hydroxy-2-methyl-propyl)pyrazol-4-yl]oxy-phenyl]-1-methyl-pyrazol-4-yl]pyrazolo[1,5-a]pyrimidine-3-carboxamide]
Ki [1]: 390 pM | Ki [2]: 210 pM | IC50 ([3]; Homo sapiens, BEAS-2B): 29000 pM

C[C@H](O)Cn1cc(Oc2ccc(OC(F)F)c(-c3nn(C)cc3NC(=O)c3cnn4cccnc34)c2)cn1 (racemic) [Example 120, N-[3-[2-(difluoromethoxy)-5-[1-[rac-(2R)-2-hydroxypropyl]pyrazol-4-yl]oxy-phenyl]-1-methyl-pyrazol-4-yl]pyrazolo[1,5-a]pyrimidine-3-carboxamide]
Ki [1]: 350 pM | Ki [2]: 240 pM | IC50 ([3]; Homo sapiens, BEAS-2B): 19000 pM

Cc1ccc(Oc2ccc(OC(F)F)c(-c3nn(C[C@@H]4C[C@@H](F)CN4C)cc3NC(=O)c3cnn4cccnc34)c2)cc1C(=O)N(C)C (racemic) [Example 89, N-[3-[2-(difluoromethoxy)-5-[3-(dimethylcarbamoyl)-4-methyl-phenoxy]phenyl]-1-[[rac-(2R,4S)-4-fluoro-l-methyl-pyrrolidin-2-yl]methyl]pyrazol-4-yl]pyrazolo[1,5-a]pyrimidine-3-carboxamide]
Ki [1]: 1200 pM | Ki [2]: 1300 pM | IC50 ([3]; Homo sapiens, BEAS-2B): 120000 pM

COC1(c2cccc(Oc3ccc(OC(F)F)c(-c4nn(C)cc4NC(=O)c4cnn5cccnc45)c3)c2)CN(C)C1 [Example 71, N-[3-[2-(difluoromethoxy)-5-[3-(3-methoxy-1-methyl-azetidin-3-yl)phenoxy]phenyl]-1-methyl-pyrazol-4-yl]pyrazolo[1,5-a]pyrimidine-3-carboxamide]
Ki [1]: 940 pM | Ki [2]: 880 pM | IC50 ([3]; Homo sapiens, BEAS-2B): 47000 pM

Cn1cc(NC(=O)c2cnn3cccnc23)c(-c2cc(Oc3cccc(CNC(CO)CO)c3)ccc2OC(F)F)n1 [Example 48, N-[3-[2-(difluoromethoxy)-5-[3-[[[2-hydroxy-1-(hydroxymethyl)ethyl]amino]methyl]phenoxy]phenyl]-1-methyl-pyrazol-4-yl]pyrazolo[1,5-a]pyrimidine-3-carboxamide]
Ki [1]: 760 pM | Ki [2]: 640 pM | IC50 ([3]; Homo sapiens, BEAS-2B): 86000 pM

Cn1cc(NC(=O)c2cnn3cccnc23)c(-c2cc(Oc3ccc(CN4CCCC[C@@H]4CO)cc3)ccc2OC(F)F)n1 (racemic) [Example 166, N-[3-[2-(difluoromethoxy)-5-[4-[[rac-(2R)-2-(hydroxymethyl)-1-piperidyl]methyl]phenoxy]phenyl]-1-methyl-pyrazol-4-yl]pyrazolo[1,5-a]pyrimidine-3-carboxamide]
Ki [1]: 2500 pM | Ki [2]: 990 pM | IC50 ([3]; Homo sapiens, BEAS-2B): 32000 pM

CN1CC(Cn2cc(Oc3ccc(OC(F)F)c(-c4nn(C)cc4NC(=O)c4cnn5cccnc45)c3)cn2)C1 [Example 127, N-[3-[2-(difluoromethoxy)-5-[1-[(1-methylazetidin-3-yl)methyl]pyrazol-4-yl]oxy-phenyl]-1-methyl-pyrazol-4-yl]pyrazolo[1,5-a]pyrimidine-3-carboxamide]
Ki [1]: 1600 pM | Ki [2]: 1500 pM | IC50 ([3]; Homo sapiens, BEAS-2B): 46000 pM

CNCc1ccnn1-c1cccc(Oc2ccc(OC(F)F)c(-c3nn(C)cc3NC(=O)c3cnn4cccnc34)c2)c1 [Example 66, N-[3-[2-(difluoromethoxy)-5-[3-[5-(methylaminomethyl)pyrazol-1-yl]phenoxy]phenyl]-1-methyl-pyrazol-4-yl]pyrazolo[1,5-a]pyrimidine-3-carboxamide]
Ki [1]: 3900 pM | Ki [2]: 3600 pM | IC50 ([3]; Homo sapiens, BEAS-2B): 130000 pM
